Laboratory results as given in article PMC9038795, “Deletion and tandem duplications of biosynthetic genes drive the diversity of triterpenoids in Aralia elata” (Nature Communications, 2022).

What was measured:
Test in all cases: HPLC-MS kinetic assay
Assay type in all cases: biochemical, Aralia elata
Details in all cases: 0.5 mM UDP-Glc, 50 mM Tris-HCl pH 7.0, 30 °C, 1 µM enzyme
[1] = test system: T1, AeUGT73AD2
T1 construct: pGEX-4T-1, GST-tagged, E. coli BL21 (DE3), GSTrap purified

[2] = test system: T2, AeUGT74AG6
T2 construct: pGEX-4T-1, GST-tagged, E. coli BL21 (DE3), GSTrap purified

[3] = test system: T3, AeUGT73CB3
T3 construct: pGEX-4T-1, GST-tagged, E. coli BL21 (DE3), GSTrap purified; methods print AeUGT74CB3
Protocol: HPLC-MS kinetic assay on AeUGT73CB3 | The kinetic parameters of AeUGT73CB3 for calenduloside E and chikusetsusaponin IVa as substrates were analyzed.

Row | Km [1] [µM] | Km [2] [µM] | Km [3] [µM] | SMILES
1 | 43 ± 9.17 | 40.3 ± 2.49 |  | CC1(C)CC[C@]2(C(=O)O)CC[C@]3(C)C(=CC[C@@H]4[C@@]5(C)CC[C@H](O)C(C)(C)[C@@H]5CC[C@]43C)[C@@H]2C1 [compound 2, oleanolic acid]
2 |  | 150 ± 7.7 | 51.8 ± 2.1 | CC1(C)CC[C@]2(C(=O)O)CC[C@]3(C)C(=CC[C@@H]4[C@@]5(C)CC[C@H](O[C@@H]6O[C@H](C(=O)O)[C@@H](O)[C@H](O)[C@H]6O)C(C)(C)[C@@H]5CC[C@]43C)[C@@H]2C1 [compound 7, calenduloside E]
3 |  | 48.8 ± 3.04 |  | CC1(C)CC[C@]2(C(=O)O)CC[C@]3(C)C(=CC[C@@H]4[C@@]5(C)CC[C@H](O[C@@H]6O[C@H](C(=O)O)[C@@H](O)[C@H](O)[C@H]6O[C@@H]6O[C@H](CO)[C@@H](O)[C@H](O)[C@H]6O)C(C)(C)[C@@H]5CC[C@]43C)[C@@H]2C1 [compound 8, zingibroside R1]
4 |  |  | 640.2 ± 4.6 | CC1(C)CC[C@]2(C(=O)O[C@@H]3O[C@H](CO)[C@@H](O)[C@H](O)[C@H]3O)CC[C@]3(C)C(=CC[C@@H]4[C@@]5(C)CC[C@H](O[C@@H]6O[C@H](C(=O)O)[C@@H](O)[C@H](O)[C@H]6O)C(C)(C)[C@@H]5CC[C@]43C)[C@@H]2C1 [compound 9, chikusetsusaponin IVa]
